Experimental data reported in PubChem BioAssay AID2060483 (Molecular Pharmacology Branch, DTP, NCI, 2025).

Test system: K24384-001-R-PDC complex spheroids, viability
Assay: Anticancer human tumor K24384-001-R-PDC patient-derived pancreatic adenocarcinoma cell line growth inhibition [GQUAD]
Conditions: for IC50: curve of first compound; for viability, T/C: stronger effect = lower value; active = viability on the fitted dose curve at most 10% of control; inactive = the rest
Summary of the method: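 Viability of tumor cells grown as complex spheroids with endothelial and stromal cells, exposed to drug combinations. Top concentration at or near clinical Cmax (else 10 microM), diluted in half-log increments.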
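Note: spheroids exposed to compounds for seven days.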

CC1COCCN1c1cc(C2(S(C)(=N)=O)CC2)nc(-c2ccnc3[nH]ccc23)n1 (configuration not stated) + Cc1cnc(CNC(=O)c2c(=O)c3ccc(N4CCCN(C)CC4)nc3n3c2sc2ccccc23)cn1
2190 nM: IC50 (second compound 0.1 µM)
5270 nM: IC50 (second compound 0.316 µM)
< 31.6 nM: IC50 (second compound 1 µM) | IC50 (second compound 3.16 µM) | IC50 (second compound 10 µM)
inactive: viability, T/C (second compound 0.0316 µM, first compound 0.0316 µM) 85.6% | viability, T/C (second compound 0.0316 µM, first compound 0.1 µM) 100% | viability, T/C (second compound 0.0316 µM, first compound 0.316 µM) 83.5% | viability, T/C (second compound 0.0316 µM, first compound 1 µM) 55.7% | viability, T/C (second compound 0.0316 µM, first compound 3.16 µM) 55% | viability, T/C (second compound 0.0316 µM, first compound 10 µM) 30.4% | viability, T/C (second compound 0.1 µM, first compound 0.0316 µM) 69% | viability, T/C (second compound 0.1 µM, first compound 0.1 µM) 90.7% | viability, T/C (second compound 0.1 µM, first compound 0.316 µM) 64.5% | viability, T/C (second compound 0.1 µM, first compound 1 µM) 56.8% | viability, T/C (second compound 0.1 µM, first compound 3.16 µM) 50.5% | viability, T/C (second compound 0.1 µM, first compound 10 µM) 39.6% | viability, T/C (second compound 0.316 µM, first compound 0.0316 µM) 57.8% | viability, T/C (second compound 0.316 µM, first compound 0.1 µM) 64.2% | viability, T/C (second compound 0.316 µM, first compound 0.316 µM) 56.1% | viability, T/C (second compound 0.316 µM, first compound 1 µM) 52.3% | viability, T/C (second compound 0.316 µM, first compound 3.16 µM) 59.8% | viability, T/C (second compound 0.316 µM, first compound 10 µM) 40.1% | viability, T/C (second compound 1 µM, first compound 0.0316 µM) 41.5% | viability, T/C (second compound 1 µM, first compound 0.1 µM) 45.2% | viability, T/C (second compound 1 µM, first compound 0.316 µM) 45.3% | viability, T/C (second compound 1 µM, first compound 1 µM) 42.7% | viability, T/C (second compound 1 µM, first compound 3.16 µM) 43.7% | viability, T/C (second compound 1 µM, first compound 10 µM) 32.5% | viability, T/C (second compound 3.16 µM, first compound 0.0316 µM) 41.9% | viability, T/C (second compound 3.16 µM, first compound 0.1 µM) 50.4% | viability, T/C (second compound 3.16 µM, first compound 0.316 µM) 37.8% | viability, T/C (second compound 3.16 µM, first compound 1 µM) 43.1% | viability, T/C (second compound 3.16 µM, first compound 3.16 µM) 37.6% | viability, T/C (second compound 3.16 µM, first compound 10 µM) 25.8% | viability, T/C (second compound 10 µM, first compound 0.0316 µM) 34.5% | viability, T/C (second compound 10 µM, first compound 0.1 µM) 23.2% | viability, T/C (second compound 10 µM, first compound 0.316 µM) 31.9% | viability, T/C (second compound 10 µM, first compound 1 µM) 35.2% | viability, T/C (second compound 10 µM, first compound 3.16 µM) 35.5% | viability, T/C (second compound 10 µM, first compound 10 µM) 21.6%
2490 nM: IC50 (second compound 0.0316 µM)
